From PubChem BioAssay (NCI)
“And” between values parts separate entries of the source, which are not always exact repeats. Identical values can stand only once.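 Compound exposure: 48 hours, 5 concentrations, 96-well plates. At the GI50, growth is halved. The concentration for full growth arrest is given as TGI.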

test system: MDA-MB-435; experiment: inhibition of tumour cell growth, NCI panel, 48 h

| SMILES | GI50 | TGI |
| --- | --- | --- |
| COc1ccc(Cn2c(Br)c3c(c2Br)-c2nc(N)sc2CC3)cc1 | 0.407 µM | 10.4 µM |
| C#Cc1cccc(Nc2nc3cc([N+](=O)[O-])ccc3nc2Nc2ccc(O)cc2)c1 | 1.67 µM | 3.39 µM |
| CN(C)CC(O)c1ccc(/C=C/c2ccc(Cl)cc2)cc1 (stereo not drawn) | 1.62 µM | 3.13 µM |
| Cc1nnc2ccnn2c1C | > 100 µM | > 100 µM |
| Cn1cc(-c2cc3c(N4CCN(c5ncc([C@@](C)(N)c6ccc(F)cc6)cn5)CC4)ncnn3c2)cn1 | 3.56 µM | > 100 µM |
| C=C1C[C@H](O)[C@H](Br)C(C)(C)[C@@]12CCC(C)=C(Cl)C2 | 0.327 µM | 1.72 µM |
| CC(=O)OC1(C)N=NC2(CCCCC2)O1 (stereo not drawn) |  | > 100 µM |
| CN(C)c1ccc(/C=N/NC(=S)Nc2ccccc2)cc1 |  | > 100 µM |
| Fc1cc(-c2nnc3n2N=C(c2ccc(Cl)cc2)CS3)c(Cl)cc1Cl | 4.97 µM | 18.4 µM |
| CCC(C)SC1SCC2C(=O)N(C)C3(CC3C)C(=O)OCC(NC(=O)c3nc4ccccc4cc3O)C(=O)NC(C)C(=O)N(C)C1C(=O)N(C)C1(CC1C)C(=O)OCC(NC(=O)c1nc3ccccc3cc1O)C(=O)NC(C)C(=O)N2C (stereo not drawn) |  | 0.00019 µM |
| CC(=O)OCc1ccc2c(c1)C(O)NC(=O)O2 (stereo not drawn) |  | > 100 µM |
| COc1ccc(CN2C(=O)C(Cl)=C(Nc3cccc(C(F)(F)F)c3)C2=O)cc1 | 2.77 µM | 9.12 µM |
| NCCNCCNCCN | > 100 µM | > 100 µM |

test system: NCI-H522 lung; experiment: inhibition of tumour cell growth, NCI panel, 48 h

| SMILES | TGI | GI50 |
| --- | --- | --- |
| C[C@@]1(O)CC[C@]2(C)C3CCCC3[C@H]12 (stereo partly drawn) | > 100 µM |  |
| COc1cc(-c2nc3sccn3c2-c2ccnc(NCCNS(=O)(=O)c3ccc(F)cc3)n2)ccc1F | > 100 µM | 2120 nM |
| COc1ccc(Cn2c(Br)c3c(c2Br)-c2nc(N)sc2CC3)cc1 | 3.04 µM | 1590 nM |
| CC(=O)[O-].CC(=O)[O-].O=C(N/N=C/c1cc(Cl)cc(Cl)c1O)c1ccncc1.[Cu+2] | > 100 µM |  |
| O=C(Nc1nc(=S)[nH][nH]1)C(=O)C(C(=O)c1ccc2ccccc2c1)C1OC(=O)c2ccccc21 (stereo not drawn) | 65.3 µM |  |
| Cc1nnc2ccnn2c1C | > 100 µM | 66300 nM |
| CCOC(=O)C1=C(C)N(NC(=O)Nc2ccccc2)C2(N)N(NC(=O)Nc3ccccc3)C(C)=C(C(=O)OCC)C12C(=O)OCC (stereo not drawn) | > 100 µM |  |
| CN(C)C=Nc1nc(=O)n(C2CCC(CO)O2)cc1F (stereo not drawn) | > 100 µM |  |
| C=C1C[C@H](O)[C@H](Br)C(C)(C)[C@@]12CCC(C)=C(Cl)C2 | 3.46 µM | 416 nM |
| Cc1ccc(S(=O)(=O)N2CCC2c2ccccc2)cc1 (stereo not drawn) | > 100 µM |  |
| CCCOc1nc(N)c2cnn(C3CCCCO3)c2n1 (stereo not drawn) | > 100 µM |  |
| C/C(CN1C(=O)c2ccccc2C1=O)=N\NS(=O)(=O)c1ccc(Cl)cc1 | > 100 µM |  |
| COc1ccc(/C=C/COC(C)=O)cc1OC | > 100 µM |  |
| CCOC(=O)n1cc(C2=C(c3ccc(OC)c(OC)c3)COC2=O)c2ccccc21 | > 33.3 µM | 38.9 nM |
| CC(=O)OC1(C)N=NC2(CCCCC2)O1 (stereo not drawn) | > 100 µM |  |
| [O-][Cl+3]([O-])([O-])[O-].[O]=[Ru]=[O].c1ccc(-c2ccccn2)nc1.c1ccc(-c2ccccn2)nc1 | > 100 µM | > 100000 nM |
| CN(C)c1ccc(/C=N/NC(=S)Nc2ccccc2)cc1 | > 100 µM |  |
| O=C1C(C(Nc2ccccc2)c2ccccc2)=C([O-])c2ccccc21.O=C1C(C(Nc2ccccc2)c2ccccc2)=C([O-])c2ccccc21.[Cu+2] (stereo not drawn) | 73.6 µM | 23700 nM |
| CN(C)CC1CCC/C1=N/OC(=O)c1ccccc1 (stereo not drawn) | > 100 µM |  |
| CCOC(=O)C1Sc2ccccc2N=C1C (stereo not drawn) | > 100 µM |  |
| Fc1cc(-c2nnc3n2N=C(c2ccc(Cl)cc2)CS3)c(Cl)cc1Cl |  | 2790 nM |
| O=C(NC1C=CCC2C(=O)N(c3ccccc3)C(=O)C12)OCc1ccccc1 (stereo not drawn) | > 100 µM |  |
| CCC(C)SC1SCC2C(=O)N(C)C3(CC3C)C(=O)OCC(NC(=O)c3nc4ccccc4cc3O)C(=O)NC(C)C(=O)N(C)C1C(=O)N(C)C1(CC1C)C(=O)OCC(NC(=O)c1nc3ccccc3cc1O)C(=O)NC(C)C(=O)N2C (stereo not drawn) | 0.00022 µM | 0.0185 nM |
| Cc1[cH-]c(=O)n(-c2ccccc2)n1.[Au+].[Au].c1ccc([PH+](c2ccccc2)c2ccccc2)cc1.c1ccc([PH+](c2ccccc2)c2ccccc2)cc1 | 51.5 µM | 3460 nM and 12400 nM |
| CC(=O)OCc1ccc2c(c1)C(O)NC(=O)O2 (stereo not drawn) | > 100 µM |  |
| CC1(C)CC(c2c[nH]c3ccccc23)=CC2=Nc3ccccc3C21O (stereo not drawn) | > 100 µM |  |
| CN1C(=O)C(=O)N2c3ccc(Cl)cc3C3(c4ccccc4)N=CC12O3 (stereo not drawn) | 9.14 µM |  |
| COc1ccc(C(c2cc(OC)c(OC)c(OC)c2)n2cncn2)cc1O (stereo not drawn) | 2.37 µM | 395 nM |
| N#CCCC[Si]12OCCN(CCO1)CCO2 | > 100 µM |  |
| O=C(/C=C/c1c(O)ccc2ccccc12)c1ccc([N+](=O)[O-])cc1 | 31.2 µM |  |

test system: PC-3 prostate; experiment: inhibition of tumour cell growth, NCI panel, 48 h

| SMILES | GI50 | TGI |
| --- | --- | --- |
| COc1cc(-c2nc3sccn3c2-c2ccnc(NCCNS(=O)(=O)c3ccc(F)cc3)n2)ccc1F | 0.946 µM | > 100 µM |
| Cc1cc(Nc2ccc(C)c(Cl)c2)n2nc(C(F)(F)F)nc2n1 | 22 µM | > 100 µM |
| COc1ccc(Cn2c(Br)c3c(c2Br)-c2nc(N)sc2CC3)cc1 | 4.76 µM | 30.1 µM |
| C#Cc1cccc(Nc2nc3cc([N+](=O)[O-])ccc3nc2Nc2ccc(O)cc2)c1 | 1.65 µM | 3.91 µM |
| CN(C)CC(O)c1ccc(/C=C/c2ccc(Cl)cc2)cc1 (stereo not drawn) | 1.42 µM | 3.09 µM |
| Cc1nnc2ccnn2c1C | > 100 µM | > 100 µM |
| Cn1cc(-c2cc3c(N4CCN(c5ncc([C@@](C)(N)c6ccc(F)cc6)cn5)CC4)ncnn3c2)cn1 | 1.99 µM | > 100 µM |
| C=C1C[C@H](O)[C@H](Br)C(C)(C)[C@@]12CCC(C)=C(Cl)C2 | 0.0573 µM | 1.87 µM |
| CCOC(=O)n1cc(C2=C(c3ccc(OC)c(OC)c3)COC2=O)c2ccccc21 | 0.0404 µM | > 100 µM |
| CC(=O)OC1(C)N=NC2(CCCCC2)O1 (stereo not drawn) |  | > 100 µM |
| CN(C)c1ccc(/C=N/NC(=S)Nc2ccccc2)cc1 |  | > 100 µM |
| Fc1cc(-c2nnc3n2N=C(c2ccc(Cl)cc2)CS3)c(Cl)cc1Cl | 16.6 µM | 31.6 µM |
| CCC(C)SC1SCC2C(=O)N(C)C3(CC3C)C(=O)OCC(NC(=O)c3nc4ccccc4cc3O)C(=O)NC(C)C(=O)N(C)C1C(=O)N(C)C1(CC1C)C(=O)OCC(NC(=O)c1nc3ccccc3cc1O)C(=O)NC(C)C(=O)N2C (stereo not drawn) |  | 0.0049 µM |
| CC(=O)OCc1ccc2c(c1)C(O)NC(=O)O2 (stereo not drawn) |  | > 100 µM |
| COc1ccc(CN2C(=O)C(Cl)=C(Nc3cccc(C(F)(F)F)c3)C2=O)cc1 | 4.61 µM | 37.3 µM |
| NCCNCCNCCN | > 100 µM | > 100 µM |
| COc1ccc(C(c2cc(OC)c(OC)c(OC)c2)n2cncn2)cc1O (stereo not drawn) | 0.431 µM | > 100 µM |

test system: RPMI-8226 leukemia; experiment: inhibition of tumour cell growth, NCI panel, 48 h

| SMILES | TGI | GI50 |
| --- | --- | --- |
| C[C@@]1(O)CC[C@]2(C)C3CCCC3[C@H]12 (stereo partly drawn) | > 100 µM |  |
| Cc1cc(Nc2ccc(C)c(Cl)c2)n2nc(C(F)(F)F)nc2n1 | 39 µM | 14 µM |
| CC(=O)[O-].CC(=O)[O-].O=C(N/N=C/c1cc(Cl)cc(Cl)c1O)c1ccncc1.[Cu+2] | > 100 µM |  |
| C#Cc1cccc(Nc2nc3cc([N+](=O)[O-])ccc3nc2Nc2ccc(O)cc2)c1 | 8 µM | 2.24 µM |
| O=C(Nc1nc(=S)[nH][nH]1)C(=O)C(C(=O)c1ccc2ccccc2c1)C1OC(=O)c2ccccc21 (stereo not drawn) | 40.2 µM |  |
| CN(C)CC(O)c1ccc(/C=C/c2ccc(Cl)cc2)cc1 (stereo not drawn) | 22.4 µM | 5.34 µM |
| Cc1nnc2ccnn2c1C | > 100 µM | > 100 µM |
